Measured values as given in patent EP3421460A1, “2-[(4-ALKYLPHENOXY)-PYRIDINYL]-1-(1,2,4-TRIAZOL-1-YL)ALKAN-2-OL FUNGICIDES” (Bayer Aktiengesellschaft, priority 2018, dated 2019).

Columns and labels:
Phakopsora pachyrhizi = experiment: in vivo curative test on Phakopsora (soybeans); settings: sprayed 3 days after inoculation, evaluated 7 days after inoculation
Description: Example A: in vivo curative test on Phakopsora (soybeans); comparison of compound I-01 according to the invention vs. related compounds known from WO-A 2017/029179 and WO-A 2013/007767, respectively [table] To produce a suitable preparation of active compound, 1 part by weight of active compound is mixed with the stated amounts of solvent and emulsifier, and the concentrate is diluted with water to the desired concentration. To test for curative activity, young plants are inoculated with an aqueous spore suspension of the causal agent of soybean rust (Phakopsora pachyrhizi) and stay for 24h without light in an incubation cabinet at approximately 24°C and a relative atmospheric humidity of 95 %. The plants remain in the incubation cabinet at approximately 24°C and a relative atmospheric humidity of approximately 80 % and a day / night interval of 12h. 3 days after the inoculation, the plants are sprayed with the preparation of active compound at the stated rate of application. The test is evaluated 7 days after the inoculation. 0% means an efficacy which corresponds to that of the untreated control, while an efficacy of 100% means that no disease is observed. Table: in vivo curative test on Phakopsora test (soybeans)

[1] = LogP measurement by HPLC on reversed phase columns (EEC directive 79/831 Annex V.A8); assay type: physicochemical; settings: reversed phase HPLC column; method [a]: LC-UV, acidic range, 0.1% formic acid in water and acetonitrile as eluent
Description: LogP values: Measurement of LogP values was performed according to EEC directive 79/831 Annex V.A8 by HPLC (High Performance Liquid Chromatography) on reversed phase columns with the following methods: • [a] […] If more than one LogP value is available within the same method, all the values are given and separated by "+". Calibration was done with straight-chain alkan2-ones (with 3 to 16 carbon atoms) with known LogP values (measurement of LogP values using retention times with linear interpolation between successive alkanones). Lambda-max-values were determined using UV-spectra from 200 nm to 400 nm and the peak values of the chromatographic signals.

Podosphaera leucotricha = experiment: in vivo curative test on Podosphaera (apples); settings: sprayed 2 days after inoculation, evaluated 10 days after inoculation
Description: Example B: in vivo curative test on Podosphaera (apples); comparison of compound I-01 according to the invention vs. related compounds known from WO-A 2017/029179 and WO-A 2013/007767, respectively [table] To produce a suitable preparation of active compound, 1 part by weight of active compound is mixed with the stated amounts of solvent and emulsifier, and the concentrate is diluted with water to the desired concentration. To test for curative activity, young plants are inoculated with an aqueous spore suspension of the causal agent of apple mildew (Podosphaera leucotricha). The plants are placed in a greenhouse at approximately 23°C under relative atmospheric humidity of approximately 70%. 2 days after the inoculation, the plants are sprayed with the preparation of active compound at the stated rate of application. The test is evaluated 10 days after the inoculation. 0% means an efficacy which corresponds to that of the untreated control, while an efficacy of 100% means that no disease is observed. Table: in vivo curative test on Podosphaera test (apples)

chromatographic logP [1]	Compound	Efficacy in% (Phakopsora pachyrhizi; rate of application 5 ppm)	Efficacy in% (Phakopsora pachyrhizi; rate of application 10 ppm)	Efficacy in% (Podosphaera leucotricha; rate of application 1 ppm)	Efficacy in% (Podosphaera leucotricha; rate of application 10 ppm)
–	CC(O)(Cn1cncn1)c1ccc(Oc2ccc(Cl)cc2)cc1C(F)(F)F (stereo not shown) [drawing 10]	8%	15%	–	–
2.69	Cc1ccc(Oc2ccc(C(C)(O)Cn3cncn3)c(C(F)(F)F)n2)cc1 (stereo not shown) [I-01, 2-[6-(4-methylphenoxy)-2-(trifluoromethyl)pyridin-3-yl]-1-(1,2,4-triazol-1-yl)propan-2-ol]	86%	83%	86%	99%
–	CC(O)(Cn1cncn1)c1ccc(Oc2ccc(S(F)(F)(F)(F)F)cc2)nc1C(F)(F)F (stereo not shown) [drawing 9]	0%	0%	–	–
–	CC(O)(Cn1cncn1)c1ccc(Oc2ccc(S(F)(F)(F)(F)F)cc2)nc1C(F)(F)F (stereo not shown) [drawing 12]	–	–	62%	92%
–	CC(O)(Cn1cncn1)c1ccc(Oc2ccc(Cl)cc2)cc1C(F)(F)F (stereo not shown) [drawing 13]	–	–	71%	95%
